Test results from the NIST ThermoML archive (doi:10.1021/je700140j).

Experiment: xn = mol fraction of the nth substance listed
Conditions: for surface tension liquid-gas: Ring tensiometer; for mass density / viscosity: 100.8 kPa, Liquid

OCCc1ccccc1 [2-phenylethanol] + CC(C)O
Conditions | mass density, 298.15 K [kg/m3] | mass density, 308.15 K [kg/m3] | mass density, 318.15 K [kg/m3] | surface tension liquid-gas, 298.15 K [mN/m] | surface tension liquid-gas, 308.15 K [mN/m] | surface tension liquid-gas, 318.15 K [mN/m] | viscosity, 298.15 K [mPa·s] | viscosity, 308.15 K [mPa·s] | viscosity, 318.15 K [mPa·s]
x2 = 0 | 1016.2 | 1008.63 | 1000.98 | 39.43 | 38.93 | 38.35 | 11.4 | 7.518 | 5.232
x2 = 0.05 | 1009.41 | 1002.31 | 994.22 | 38.1 | 37.7 | 37.2 | 10.66 | 7.05 | 4.953
x2 = 0.1 | 1002.07 | 994.92 | 986.78 | 36.9 | 36.58 | 36.13 | 9.933 | 6.594 | 4.645
x2 = 0.15 | 994.41 | 986.76 | 978.99 | 35.8 | 35.47 | 35.05 | 9.256 | 6.148 | 4.366
x2 = 0.2 | 986.36 | 978.65 | 970.82 | 34.7 | 34.38 | 33.97 | 8.618 | 5.726 | 4.103
x2 = 0.25 | 977.95 | 970.19 | 962.28 | 33.63 | 33.28 | 32.88 | 8 | 5.341 | 3.85
x2 = 0.3 | 969.14 | 961.31 | 953.36 | 32.61 | 32.23 | 31.8 | 7.407 | 4.969 | 3.6
x2 = 0.35 | 959.91 | 952.04 | 943.99 | 31.6 | 31.19 | 30.75 | 6.858 | 4.621 | 3.362
x2 = 0.4 | 950.21 | 942.3 | 934.2 | 30.6 | 30.17 | 29.7 | 6.35 | 4.286 | 3.132
x2 = 0.45 | 940.02 | 932.05 | 923.92 | 29.6 | 29.16 | 28.68 | 5.862 | 3.964 | 2.912
x2 = 0.5 | 929.31 | 921.29 | 913.06 | 28.62 | 28.16 | 27.68 | 5.412 | 3.67 | 2.713
x2 = 0.55 | 918.04 | 909.98 | 901.7 | 27.65 | 27.17 | 26.68 | 4.978 | 3.389 | 2.524
x2 = 0.6 | 906.21 | 898.08 | 889.7 | 26.7 | 26.2 | 25.7 | 4.571 | 3.124 | 2.342
x2 = 0.65 | 893.62 | 885.47 | 877.03 | 25.8 | 25.3 | 24.83 | 4.173 | 2.876 | 2.162
x2 = 0.7 | 880.35 | 872.12 | 863.6 | 24.98 | 24.48 | 24 | 3.793 | 2.634 | 1.989
x2 = 0.75 | 866.25 | 857.98 | 849.39 | 24.2 | 23.68 | 23.2 | 3.438 | 2.407 | 1.823
x2 = 0.8 | 851.34 | 842.99 | 834.3 | 23.45 | 22.9 | 22.45 | 3.101 | 2.201 | 1.665
x2 = 0.85 | 835.47 | 827.04 | 818.29 | 22.75 | 22.2 | 21.7 | 2.808 | 2.009 | 1.526
x2 = 0.9 | 818.57 | 810.09 | 801.28 | 22.1 | 21.5 | 20.97 | 2.541 | 1.859 | 1.415
x2 = 0.95 | 800.54 | 792 | 783.08 | 21.5 | 20.8 | 20.18 | 2.281 | 1.693 | 1.298
